These results are taken from paper PMC7824103 (Viruses, 2020).

Read-outs that look alike come from different tables or passages of the source. Bounds are passed on as bounds.

Data set [1] can be described thus: in vitro. The note with it: human.
Data set [2] deals with EBOV. The data set can be described thus: microbe, parasite or virus in culture. The format is cell-based, Ebola virus. The note with it: Zaire ebolavirus; for IC50: read-out: Huh7 IC50; for IC90: read-out: Huh7 IC90.
Data set [3] relates to EBOV L (RdRp) activity. The data set is described as follows: cells. The format is cell-based, Ebola virus. The note with it: for IC50: Zaire ebolavirus, HEK293T/17, 24 h, read-out: IC50 (minigenome luciferase).
Data set [4] concerns vaccinia virus. The settings on record: cited from earlier work.
The test system of data set [5] is herpes simplex virus 1. The note with it: cited from earlier work.
A short description of data set [6]: in vitro.
For data set [7] the following is noted: mouse, in vivo; cited from earlier work.
For data set [8], the system named is African green monkeys. The note with it: monkey, in vivo; cited from earlier work.
In data set [9] the test system is human parainfluenza virus 3. The note with it: cited from earlier work.
Data set [10] relates to recombinant vaccinia virus expressing GFP (rVACV-GFP). The data set is described as follows: organism not typed. The format is cell-based.
The test system of data set [11] is HEK 293T/T17 cells. The settings on record: human.
Data set [12] relates to Sindbis virus. The settings on record: cited from earlier work.
Data set [13] relates to Lassa virus strain Josiah (LASV). The data set can be described thus: microbe, parasite or virus in culture. The format is cell-based. The note with it: read-out: Max at conc (percent inhibition).
Data set [14] has as its system Marburg virus/H. sapiens-tc/AGO/2005/Angola-1379v (MARV). The data set is described as follows: organism not typed. The format is cell-based.
The test system of data set [15] is reovirus type 1. The settings on record: cited from earlier work.
The subject of data set [16] is EBOV. The data set is described as follows: microbe, parasite or virus in culture. The settings on record: Zaire ebolavirus. The format is cell-based, Ebola virus.
Data set [17] deals with Ebola virus/H.sapiens-tc/GIN/2014/Makona-C05 (EBOV). The data set is described as follows: organism not typed. The format is cell-based.
The test system of data set [18] is recombinant cowpox virus expressing GFP (rCPXV-GFP). The data set is described as follows: microbe, parasite or virus in culture. The note with it: read-out: Max at conc (percent inhibition). The format is cell-based.
The test system of data set [19] is herpes simplex virus 2. The note with it: cited from earlier work.
In data set [20] the test system is vesicular stomatitis Indiana virus. The note with it: cited from earlier work.
Data set [21] concerns HIV-1 particles pseudotyped with VSIV G. The format is cell-based, human immunodeficiency virus 1.
The test system of data set [22] is coxsackie virus B4. The note with it: cited from earlier work.
Data set [23] relates to patients. The settings on record: human, in vivo; cited from earlier work.
Data set [24] concerns poliovirus 1. The note with it: cited from earlier work.
Data set [25] deals with HEK 293T cells.
The mark [26] stands for this setting: Orthopoxvirus vaccinia, read-out: Max at conc (percent inhibition).
Where [27] appears, read: read-out: Max at conc (percent inhibition).

With `CN(Cc1cnc2nc(N)nc(N)c2n1)c1ccc(C(=O)N[C@@H](CCC(=O)O)C(=O)O)cc1` [NSC 740], the CC50 in data set [1] is 0.13 µM.
As to `CCc1nc(N)nc(N)c1-c1ccc(Cl)cc1` [NSC 3061], the CC50 in data set [1] was 22 µM.
For `COc1cc(Cc2cnc(N)nc2N)cc(OC)c1OC` [NSC 106568], the CC50 in data set [1] was more than 60 µM.
Turning to `COc1cc(NS(C)(=O)=O)ccc1Nc1c2ccccc2nc2ccccc12` [NSC 249992], in [1], the CC50 was 22 µM.
For `C#CCC(Cc1cnc2nc(N)nc(N)c2n1)c1ccc(C(=O)N[C@@H](CCC(=O)O)C(=O)O)cc1` (stereo partly drawn) [NSC 754230], the CC50 in [1] is 0.004 µM.
The term IC50 denotes the midpoint of a concentration-inhibition curve. As a reminder, the IC90 is the concentration at which the effect reaches the 90% level. With `CCC(CC)COC(=O)[C@H](C)N[P@](=O)(OC[C@H]1O[C@@](C#N)(c2ccc3c(N)ncnn23)[C@H](O)[C@@H]1O)Oc1ccccc1` [Remdesivir, remdesivir, reference compound], the IC50 in [2] (Huh-7, 1 h) was determined as 0.0877 µM; in data set [2] (Huh-7, 2 h), 0.0746 µM; in data set [2] (Huh-7, 4 h) it was 0.105 µM; in data set [2] (Huh-7, 8 h), 0.116 µM; in [2] (Huh-7, 24 h), 0.117 µM; in data set [3] it was 1.44 µM. The IC90 in [2] (Huh-7, 1 h) stood at 0.18 µM; in data set [2] (Huh-7, 2 h) it was 0.154 µM; in data set [2] (Huh-7, 4 h) it was 0.188 µM; in data set [2] (Huh-7, 8 h), 0.224 µM; in [2] (Huh-7, 24 h) it was 0.231 µM. Further, the “IC50 of constant ratio S:R, relative to remdesivir concentration” value in [3] is given as 1,444 nM.
The inhibition is the relative decrease from the control value, in per cent. Regarding `NC(=O)c1cn([C@@H]2O[C@H](CO)[C@@H](O)[C@H]2O)c2ncnc(N)c12` [Sangivamycin, 4-amino-7-(β-D-ribofuranosyl)pyrrolo[2,3-d]pyrimidine-5-carboxamide], the IC50 is 0.065 µM in data set [4]; 0.226 µM in data set [5]; 0.065 µM in data set [9]; more than 0.004 µM in [10]; 0.02 ± 0.004 µM in data set [10] (Orthopoxvirus vaccinia); 0.103 µM in [2] (Huh-7, 1 h). Also, the IC50 in [2] (Huh-7, 2 h) was 0.106 µM; in data set [2] (Huh-7, 4 h), 0.057 µM; in data set [2] (Huh-7, 8 h) it was 0.0721 µM; in data set [2] (Huh-7, 24 h), 0.0641 µM; in [12], 0.646 µM; in [3] it was 0.0464 µM. The IC50 in [14] (read-out: IC50 values (range across cell types)) is 0.1 to 0.3 µM; in [15], 0.323 µM; in [16], 0.06 ± 0.003 µM; in data set [17], 0.11 ± 0.008 µM; in data set [17] (Zaire ebolavirus), 0.06 ± 0.003 µM; in data set [17] (Zaire ebolavirus, read-out: IC50 values (range across cell types)) it was 0.04 to 0.1 µM. For the same compound, the IC50 in data set [19] is 0.226 µM; in [20], 0.065 µM; in data set [22], 0.129 µM; in data set [24], 0.226 µM. The CC50 in data set [6] is more than 0.6 µM. Further, the tissue retention entry in data set [7] is reported as “retained in tissues for days”. Moreover, the tolerability result in data set [8] is reported as “tolerated”. Further, in data set [10] (setting [26]), the inhibition at 0.075 µM was 98%. The results for the inhibition at 0.3 µM in [10] (setting [26]) and in data set [13] were 95.4% and 104%, respectively. Also, in data set [11], the cytotoxicity result is given as “approximately 30%”. Besides, the IC90 was found to be 0.147 µM in [2] (Huh-7, 1 h); 0.143 µM in [2] (Huh-7, 2 h); 0.132 µM in data set [2] (Huh-7, 4 h); 0.163 µM in data set [2] (Huh-7, 8 h); 0.236 µM in data set [2] (Huh-7, 24 h). Moreover, the “IC50 of constant ratio S:R, relative to sangivamycin concentration” value in [3] amounted to 0.0464 µM. Moreover, the “reduction of luciferase activity vs untreated control” value in data set [3] is listed as “greater than 80%”. The inhibition at 0.6 µM was determined as 99.7% in [13]; 100% in [14] (setting [27]); 100% in data set [17] (Zaire ebolavirus, read-out: Max at conc (percent inhibition)); 97% in [18]. For the same compound, the inhibition at 0.15 µM in data set [16] (setting [27]) worked out at 100%. Besides, in data set [21], the HIV-1 pseudotype transduction entry is given as “did not affect”. For the same compound, in data set [23], the “activity against cancer in clinical trials” value was “inactive”. Besides, in data set [23], the tolerability in patients entry is “well tolerated”.
Compound NSC 133071 showed a CC50 in data set [25] of more than 60 µM.
As to sangivamycin HCl [NSC 143648], the CC50 in data set [25] is more than 60 µM.
